{
  "source": "patent US8399466B2",
  "about": "“Composition for regenerative treatment of cartilage disease” (Mitsubishi Tanabe Pharma Corporation, priority 2001, dated 2013)",
  "key": {"articular chondrocytes": {"system": "articular chondrocytes", "assay": "Increase of matrix production of articular chondrocytes (Alcian blue staining of proteoglycan)", "type": "cell-based, rabbit", "settings": "for Proteoglycan Production (%): cultivation until day 5, vehicle = 100; for matrix production promoting activity: summary of Table 1", "experimental": "Four NZW line rabbits (Kitayama Labes., Co Ltd.; male; 4-week-old) were sacrificed with bleeding under ether anesthesia and femur knee joints were collected aseptically. The collected knee joints were stored in phosphate buffer (pH 7.2) containing 0.2% glucose and only the cortical layer of knee joint was scrapped with a surgical knife into a 50 ml tube containing phosphate buffer (pH 7.2) containing 0.2% glucose. The collected knee joint cortical layer was cut into as small sections as possible on a dish with a razor and shaken at 37° C. for 15 minutes in phosphate buffer containing 0.2% glucose, supplied with 10× trypsin-ethylenediamine tetraacetic acid (EDTA)·4 Na salt (GIBCO; Cat. No. 15400-054) (50 ml, with 100 mg of trypsin and 40 mg of EDTA·4Na; pH 7.2). After shaking, the sample was centrifuged (1,400 rpm) to collect precipitates, and the precipitates were washed twice with 40 ml of phosphate buffer containing 0.2% glucose. The washed precipitates were combined with 40 ml of serum-free α-minimum essential medium (MEM: GIBCO; Cat: No. 12571-063) containing 60 mg of collagenase for cell diffusion (Wako Pure Chemical Industries, Ltd., 034-10533) and transferred to a 100 ml beaker containing a sterilized stirrer bar. Under stirring with the stirrer bar, the collagenase digestion was carried on for about 1 hour in a CO2 incubator at 37° C. Cartilage fragments were removed from the collagenase-treated cells using a […] Cell Strainer ([FALCON; Cat. No. 2340]). To the residual treated cells was added 10 ml of α-MEM medium containing 10% fetal calf serum (FCS), and centrifuged (1,400 rpm). The precipitates were washed with 10% FCS-αMEM medium twice, suspended in appropriate volume of the same medium and the resultant suspension was seeded into collagen type II (Wako Pure Chemical Industries, Ltd., 033-13901)-coated plates (48 well) at 20,000 cells/well. On the next day, the medium was replaced with 10% FCS-αMEM medium.\nWhen cells reached to confluent after the medium exchange procedure above, the medium for test group was replaced with test compound-containing medium (including 0.1% dimethylsulfoxide as a vehicle). As a medium to which a test compound is added, 10% FCS-αMEM medium containing 0.2 mM ascorbic acid was used. The day on which test compound-containing medium was added for the first time was defined as “day 1”. The medium exchange with the same medium was again conducted at day 3 and the cultivation continued until day 5. As to the control group, the medium was exchanged at the same time using the same medium as the test group except that it is free of test compound (containing vehicle only), and the cultivation was carried out in the same manner. After completion of cultivation, the supernatant was removed from the culture medium. Cells were fixed by addition of 0.25 ml of neutral buffer containing 4% paraformaldehyde and incubation for 2 hours. Cells were washed three times with 1 ml of phosphate buffer (pH 7.2) and then stained for 4 hours with 0.1% Alcian blue 8GX (Sigma; A3157) dissolved in 0.1 M hydrochloric acid, which Alcian blue selectively stains cartilage matrix proteoglycan. After staining, the cells were washed 3 times with 1 ml of phosphate buffer (pH 7.2). Alcian blue which had stained cartilage matrix was dissolved with 0.25 ml of aqueous 6 M guanidine hydrochloride solution and a portion of the solution was used to determine the absorbance at 620 nm. The amounts of Alcian blue used for staining was calculated from the absorbance, which in turn was used for the estimation of the amount of matrix (proteoglycan)."}, "[1]": {"system": "rabbit articular chondrocytes", "assay": "Matrix production of rabbit articular chondrocytes in the presence of IL-1", "type": "cell-based", "settings": "1 × 10^−6 M; IL-1β 1 ng/ml; until day 3; vehicle = 100", "experimental": "Four NZW line rabbits (Kitayama Labes., Co Ltd.; male; 4-week-old) were sacrificed with bleeding under ether anesthesia and knee joints of femur side were collected aseptically. Only the cortical layer was scrapped with a surgical knife in phosphate buffer (pH 7.2) containing 0.2% glucose and then placed into a 50 ml tube containing phosphate buffered saline containing 0.2% glucose. The collected knee joint cortical layer was cut into as small sections as possible on a dish with a razor, combined with 50 ml of phosphate buffer (100 mg trypsin, 40 mg EDTA·4 Na; pH 7.2) containing 0.2% glucose, supplied with 10× trypsin-ethylenediamine tetraacetic acid tetra sodium salt (EDTA·4Na: GIBCO; Cat. No. 15400-054) and shaken at 37° C. for 15 minutes.\nAfter shaking, the precipitates were collected by centrifugation (1,400 rpm) and washed twice with 40 ml of phosphate buffer (pH 7.2) with 0.2% glucose.\nTo the washed precipitates was added 40 ml of α-minimum essential medium (MEM: GIBCO; Cat. No. 12571-063) containing 60 mg of collagenase for cell diffusion (Wako Pure Chemical Industries, Ltd., 034-10533) and antibiotics (200 U/ml penicillin G and 200 μg/ml streptomycin sulfate) (GIBCO; Cat. No. 15140-122), and the mixture was transferred to a 100 ml beaker containing a sterilized stirrer bar.\nThe incubation was conducted in a CO2 incubator at 37° C. for 30 minutes under stirring with a stirrer bar. Deoxyribonuclease I (Takara Shuzo Co., LTD.; Cat. No. 2210A) was then added at a concentration of 70 U/ml. The cultivation was conducted under the same condition for another 30 minutes. The supernatant of the culture was collected in another vessel and the remaining cartilage slips were then cultured again for about 30 minutes in freshly prepared α-minimum essential medium containing 60 mg of collagenase and 70 U/m1 deoxyribonuclease I.\nTo the previously collected culture supernatant and the last culture, from which cartilage slips had been removed using a 40 μm Cell Strainer (FALCON; Cat. No. 2340), 10 ml of α-minimum essential medium (MEM: GIBCO; Cat. No. 12571-063) containing 10% fetal calf serum (GIBCO Cat. No. 10099-141) and antibiotics (200 U/ml penicillin G and 200 μg/ml streptomycin sulfate) (GIBCO; Cat. No. 15140-122) was added and centrifuged (1,400 rpm, 10 minutes).\nThe precipitates were washed twice with α-minimum essential medium containing 10% fetal calf serum and antibiotics, suspended with an appropriate volume of the same medium, and seeded into 48-well plates (20,000 cells/well). […]\nAfter staining, the cells were washed 3 times with 1 ml of phosphate buffer (pH 7.2). Alcian blue which had stained cartilage matrix was dissolved with 0.25 ml of 6 M aqueous guanidine hydrochloride solution and a portion of which was used to determine the absorbance at 620 nm. […]"}, "aggrecan gene": {"system": "aggrecan gene", "assay": "Expression of gene encoding cartilage matrix protein (Northern hybridization), aggrecan", "type": "cell-based, rabbit", "settings": "cultured 4 days, control = 100%", "experimental": "(§1) Total RNA was extracted with ISOGEN (Nippon Gene Co., Ltd.) from rabbit knee articular chondrocytes cultured for 4 days according to the same manner as Experimental Example 1 in the presence of Compound (1) at a final concentration of 1×10^−4 M or 1×10^−5 M, and 15 μg of the total RNA was dissolved in 4.5 μl of a sterilized water. This solution was combined with 2 μl of 5×MOPS buffer, 3.5 μl of formaldehyde and 10 μl of formamide, and denatured at 90° C. for 15 minutes. The mixture was then electrophoresed on 1% agarose gel in the presence of formaldehyde. After completion of electrophoresis, RNA was transferred to a nylon membrane (Amersham Pharmacia Biotech) overnight by capillary method. The RNA was fixed to the nylon membrane by UV crosslinking and subjected to prehybridization at 60° C. for 2 hours in 50 ml of hybridization solution (6×SSC, 5×Denhart's solution, 0.5% SDS, 100 μg/ml heat-denatured salmon sperm DNA, free of 50% formamide).\n(§2) Then, DNA probes of mouse type II collagen gene and human aggrecan. […] The nylon membrane was subjected to an autoradiography and exposed to X-ray film using LAS-1000 (Fuji Photo Film Co., Ltd.) A relative amount of each RNA was measured using Image Gause (Fuji Photo Film Co., Ltd.) and corrected with […] (internal RNA: internal control). The gene expression rate in test group was calculated by assuming that in control group as 100%."}, "type II collagen gene": {"system": "type II collagen gene", "assay": "Expression of gene encoding cartilage matrix protein (Northern hybridization), type II collagen", "type": "cell-based, rabbit", "settings": "cultured 4 days, control = 100%", "experimental": "as §1, §2"}, "[2]": {"system": "cAMP hydrolytic PDE expressed in human articular cartilage (fraction Nos. 28-30)", "assay": "Inhibition of cAMP hydrolyzing activity of fraction Nos. 28-30 of human articular cartilage extract", "type": "biochemical", "experimental": "From the human knee articular cartilage was isolated on surgery of osteoarthrosis patients. Cartilage portion was scrapped with a surgery knife, washed with ice-cold phosphate buffer and stored at −80° C. The cartilage tissues were milled at −80° C. and then, scattered into pieces with homogenizer (Kinematica A.G., Polytron) in ice-cold homogenization buffer (20 mM Tris-HCl, pH 8.0, 1 mM ethylene glycol bis(β-aminoethylether)-N,N,N′,N′-tetraacetic acid, 1 mM dithiothreitol, 10 μg/ml leupeptin, 5 mM benzamidine, 0.2 mM phenylmethylsulfonyl fluoride, 1 mM sodium azide and 5 mM mercaptoethanol). The resultant homogenate was centrifuged (100,000×g; 30 minutes) to separate supernatant.\nThe above supernatant was loaded on a Mono Q Sepharose High Performance column (Amersham Pharmacia Biotech) equilibrated with elution buffer (20 mM Tris-HCl, pH 8.0, 1 mM ethylene glycol bis(β-aminoethylether)-N,N,N′,N′-tetraacetic acid, 1 mM dithiothreitol, 2 μg/ml leupeptin, 5 mM benzamidine). After washing the column with 20 ml of elution buffer, proteins were eluted into 1 ml fractions by aqueous sodium chloride solution (concentration gradient: 0 to 1000 mM, 70 ml) under ice-cooling. Each fraction was subjected to the determination of hydrolytic activity (PDE activity) toward cAMP and cGMP as a substrate.\nThe determination of PDE activity was performed by a radio-labeled nucleic acid assay. That is, the reaction was initiated by adding from 10 to 50 μl of elution fraction to 500 μl of assay buffer (50 mM Tris-HCl, pH 8.0, 5 mM magnesium chloride, 4 mM 2-mercaptoethanol) containing 1 μM of unlabeled cAMP and 22 nM of [^3H]-cAMP (Amersham Pharmacia Biotech).\nAfter incubation at 37° C. for 30 minutes, the reaction was quenched by boiling for 1.5 minutes. Then, 100 μl of 1 mg/ml Crtalus atrox snake venom was added and incubated at 37° C. for 30 minutes. After addition of 500 μl of methanol, the reaction solution was subjected to Dowex column (1×8-400). To each eluate was added a liquid scintillation cocktail and the radio activity was measured.\nThe inhibitory activity of PDE4 inhibitor on fraction Nos. 28-30 containing potent cAMP hydrolyzing activity was measured according to the above-mentioned radio-labeled nucleic acid assay. The test compounds are Compound (1), Compound (2), Compound (11), Compound (44) and Compound (27)."}},
  "data": [
    {"smiles": "COc1ccc([C@]2(C#N)CC[C@H](C(=O)O)CC2)cc1OC1CCCC1", "note": "[Compound (27)]", "values": [
      {"measurement": "Proteoglycan Production (%)", "setting": "articular chondrocytes; 1 × 10^−5 M", "result": 131, "unit": "%"},
      {"measurement": "Proteoglycan Production (%)", "setting": "articular chondrocytes; 1 × 10^−6 M", "result": 129, "unit": "%"},
      {"measurement": "matrix production promoting activity", "setting": "articular chondrocytes", "result": "exert matrix production promoting activity"}
    ]},
    {"smiles": "COc1ccc([C@H](Cc2ccncc2)c2ccccc2)cc1OC1CCCC1", "note": "[Compound (21)]", "values": [
      {"measurement": "Proteoglycan Production (%)", "setting": "articular chondrocytes; 1 × 10^−5 M", "result": 120, "unit": "%"},
      {"measurement": "Proteoglycan Production (%)", "setting": "articular chondrocytes; 1 × 10^−6 M", "result": 115, "unit": "%"},
      {"measurement": "matrix production promoting activity", "setting": "articular chondrocytes", "result": "exert matrix production promoting activity"}
    ]},
    {"smiles": "COc1ccc(/C(C)=N/OC(N)=O)cc1OC1CCCC1", "note": "[Compound (9)]", "values": [
      {"measurement": "Proteoglycan Production (%)", "setting": "articular chondrocytes; 1 × 10^−5 M", "result": 138, "unit": "%"},
      {"measurement": "Proteoglycan Production (%)", "setting": "articular chondrocytes; 1 × 10^−6 M", "result": 128, "unit": "%"},
      {"measurement": "matrix production promoting activity", "setting": "articular chondrocytes", "result": "exert matrix production promoting activity"}
    ]},
    {"smiles": "COc1cc2c(cc1OC)C(c1ccnc(-n3ccc4c(OCCN5CCOCC5)cccc4c3=O)c1)=N[C@H](CO)C2", "note": "[Compound No. 52]", "values": [
      {"measurement": "Proteoglycan Production (%)", "setting": "[1]", "result": 209, "unit": "%"}
    ]},
    {"smiles": "COc1cc2cc(CO)c(CO)c(-c3ccnc(-n4ccc5ccccc5c4=O)c3)c2cc1OC", "note": "[Compound No. 56]", "values": [
      {"measurement": "Proteoglycan Production (%)", "setting": "[1]", "result": 168, "unit": "%"}
    ]},
    {"smiles": "CCOc1cc2cc(CO)c(CO)c(-c3ccn(CCOC)c(=O)c3)c2cc1OCC", "note": "[Compound (1)]", "values": [
      {"measurement": "Expression of aggrecan gene (%)", "setting": "aggrecan gene; 10^−4 M", "result": 4262, "unit": "%"},
      {"measurement": "Expression of aggrecan gene (%)", "setting": "aggrecan gene; 10^−5 M", "result": 2693, "unit": "%"},
      {"measurement": "Proteoglycan Production (%)", "setting": "articular chondrocytes; 1 × 10^−4 M", "result": 144, "unit": "%"},
      {"measurement": "Proteoglycan Production (%)", "setting": "articular chondrocytes; 1 × 10^−5 M", "result": 133, "unit": "%"},
      {"measurement": "matrix production promoting activity", "setting": "articular chondrocytes", "result": "exert matrix production promoting activity"},
      {"measurement": "Expression of Type II collagen gene (%)", "setting": "type II collagen gene; 10^−4 M", "result": 406, "unit": "%"},
      {"measurement": "Expression of Type II collagen gene (%)", "setting": "type II collagen gene; 10^−5 M", "result": 278, "unit": "%"},
      {"measurement": "inhibition of the hydrolytic activity of the fraction", "setting": "[2]; fraction Nos. 28-30, FIG. 4", "result": "inhibits the hydrolytic activity of the fraction strongly"},
      {"measurement": "IC50 for fraction(s)", "setting": "[2]; method of Journal of Medicinal Chemistry, vol. 42, 1088-1099 (1999), values only in FIG. 4", "result": "consistent with the IC50 of PDE4 inhibition activity described in the same literature"}
    ]}
  ]
}
